Data: publication PMC6234866, “High-Affinity Chemotaxis to Histamine Mediated by the TlpQ Chemoreceptor of the Human Pathogen Pseudomonas aeruginosa” (mBio, 2018)
Where two headings read alike, the source gives them in different places.

Columns and labels:
McpU-LBD [1] = biological target: T1, McpU-LBD (Pseudomonas putida, UniProt Q88NI1); assay: ITC binding of ligands to McpU-LBD; design: species or system Pseudomonas putida KT2440; settings: for ΔH McpU-LBD / Kd: 25°C; for Kd: polybuffer pH 7.0
TlpQ-LBD [2] = biological target: TlpQ-LBD (Pseudomonas aeruginosa, UniProt Q9I0I4); assay: biochemical; format: binding, Pseudomonas aeruginosa PAO1
TlpQ-LBD [3] = assay: biochemical; format: binding, Pseudomonas aeruginosa PAO1; settings: ratio of ITC KD values
McpU-LBD [4] = biological target: T1, McpU-LBD; assay: Thermal shift assay of McpU-LBD; format: binding, Pseudomonas putida KT2440; settings: 10 µM McpU-LBD, Biolog plate PM3B; Tm without ligand 46.5°C
Method: Thermal shift experiments were conducted as reported in reference in [57]. McpU-LBD in polybuffer {5 mM Tris, 5 mM PIPES [piperazine-N,N′-bis(2-ethanesulfonic acid)], 5 mM MES [morpholineethanesulfonic acid], 10% glycerol [vol/vol], 150 mM NaCl, pH 7.0} was used at a final concentration of 10 µM. Biolog (Hayward, CA, USA) compound arrays PM3B (nitrogen sources), PM4A (phosphorous and sulfur sources), and PM5 (nutrient supplements) were used for screening. The compositions of these arrays are provided at http://208.106.130.253/pdf/pm_lit/PM1-PM10.pdf.

McpU-LBD [5] = biological target: T1, McpU-LBD; settings: read-out: KD McpU-LBD; ITC; reported previously; cited from earlier work
PAO1 = assay: Growth with ligand as sole carbon or nitrogen source, PAO1; settings: PAO1, minimal medium, 5 mM ligand
KT2440 = assay: Growth with ligand as sole carbon or nitrogen source, KT2440; settings: KT2440, minimal medium, 5 mM ligand
[6] = tested on: P. aeruginosa PA14 mutant defective in pctA, pctC and tlpQ; settings: deletion of pctA, tlpQ homologues
Method: (§1) Two protocols were used that differed in the ways the cells were counted. The first protocol was used to generate the data shown Fig. S6, whereas the second protocol was used for the remaining chemotaxis experiments. In the first protocol, overnight cultures of strains were diluted to an OD660 of 0.05 in MS medium ([58]) supplemented with 6 mg·liter^−1 Fe citrate, trace elements, and 15 mM glucose and grown at 37°C. At an OD660 of 0.4, the cultures were centrifuged at 1,700 × g for 5 min and the pellet was washed twice with chemotaxis buffer (50 mM potassium phosphate, […], 0.05% [vol/vol] glycerol, pH 7.0). The cells were resuspended in this buffer and adjusted to an OD660 of 0.1, and 230-µl aliquots were placed into 96-well plates. Capillary tubes (P1424, Microcaps; Drummond Scientific) were heat sealed at one end and filled with chemotaxis buffer or chemotaxis chemoattractant solution. The capillaries were then immersed in bacterial suspensions at their open ends. After 30 min at room temperature, the capillaries were removed and rinsed with sterile water, and the content was expelled into 1 ml of M9 medium. Serial dilutions were plated on LB medium, and the CFU were determined. In all cases, the data were corrected to the number of cells that swam into the buffer-containing capillaries. In the second protocol, we used computer-assisted image analysis as reported previously ([59]). Briefly, capillaries were filled with chemoattractant solutions in 10 mM HEPES buffer (pH 7.0) containing 1% (wt/vol) agarose and heat sealed on one side. The cells were grown in 2× yeast extract-tryptone (YT), medium and 10-μl aliquots of the cell suspension were placed onto a microscope slide within the U-shaped spacer, which was then covered by a coverslip. The chemoattractant-filled capillaries were introduced into the chemotaxis chamber, and cell movement was videotaped, with images taken at the beginning and at different time intervals. If not otherwise stated, the contact time between the cell and the chemoattractant was 2 min. The Bioinformatics Assistant Icy Sport detector software ([60]) was used to determine the number of cells per image. The magnitude of chemotaxis was expressed as the number of cells after a given time over the number of cells at the beginning of the experiment. The data shown are the means and standard deviations from three experiments conducted in triplicates.

[7] = tested on: P. aeruginosa PAO1 mutant strains
Method: as §1

P. aeruginosa PAO1 = settings: PAO1, capillary assay
Method: as §1

[8] = tested on: P. aeruginosa strains 233, 401 and PA14; settings: 5 mM histamine; all analyzed P. aeruginosa strains
Method: as §1

PctC-LBD = PctC-LBD (Pseudomonas aeruginosa, UniProt Q9HW93); assay: Microcalorimetric binding studies with PctC-LBD; design: species or system Pseudomonas aeruginosa PAO1; settings: direct microcalorimetric titration
[9] = tested on: Ralstonia pseudosolanacearum Ps29; settings: 5 mM histamine, strain Ps29
[10] = tested on: Ralstonia pseudosolanacearum Ps29; settings: Ps29, minimal medium, 5 mM
PctA-LBD = PctA-LBD (Pseudomonas aeruginosa, UniProt G3XD24); settings: for binding to PctA-LBD (in words): direct microcalorimetric titration
Sequence of PctA-LBD (G3XD24 32-276): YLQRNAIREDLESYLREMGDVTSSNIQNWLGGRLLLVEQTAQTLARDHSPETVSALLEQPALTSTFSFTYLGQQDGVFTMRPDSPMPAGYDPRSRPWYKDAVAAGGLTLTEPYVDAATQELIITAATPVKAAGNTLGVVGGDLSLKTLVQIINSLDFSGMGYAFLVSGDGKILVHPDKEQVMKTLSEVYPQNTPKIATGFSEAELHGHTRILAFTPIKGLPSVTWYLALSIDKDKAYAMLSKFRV

T1 sequence (Q88NI1 50-284): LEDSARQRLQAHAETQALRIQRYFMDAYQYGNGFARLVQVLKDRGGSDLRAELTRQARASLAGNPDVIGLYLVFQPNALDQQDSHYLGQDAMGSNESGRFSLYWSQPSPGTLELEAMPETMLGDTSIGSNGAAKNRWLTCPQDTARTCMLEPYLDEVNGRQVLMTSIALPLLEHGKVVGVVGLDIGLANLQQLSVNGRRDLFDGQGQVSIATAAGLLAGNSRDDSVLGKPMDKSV
Sequence of TlpQ-LBD (Pseudomonas aeruginosa, UniProt Q9I0I4) (Q9I0I4 33-359): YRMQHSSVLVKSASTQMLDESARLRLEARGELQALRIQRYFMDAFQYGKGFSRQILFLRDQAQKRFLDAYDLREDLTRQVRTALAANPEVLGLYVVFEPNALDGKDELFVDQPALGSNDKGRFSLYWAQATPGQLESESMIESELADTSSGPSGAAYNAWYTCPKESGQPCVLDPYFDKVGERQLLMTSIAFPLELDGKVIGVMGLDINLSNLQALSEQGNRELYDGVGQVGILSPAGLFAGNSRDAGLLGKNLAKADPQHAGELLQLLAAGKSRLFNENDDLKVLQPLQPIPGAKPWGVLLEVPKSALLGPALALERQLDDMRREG
Sequence of PctC-LBD (Q9HW93 32-279): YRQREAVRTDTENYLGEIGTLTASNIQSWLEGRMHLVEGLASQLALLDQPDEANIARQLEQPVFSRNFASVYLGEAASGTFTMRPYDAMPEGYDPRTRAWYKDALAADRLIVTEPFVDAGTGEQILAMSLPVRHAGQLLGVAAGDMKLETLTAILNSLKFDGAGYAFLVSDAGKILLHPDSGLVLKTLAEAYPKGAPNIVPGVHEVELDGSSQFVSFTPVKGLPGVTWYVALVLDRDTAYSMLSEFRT

In the case of `NCCCCN=C(N)N` [Agmatine], the “binding to McpU-LBD (in words)” value (McpU-LBD [1]) is reported as “Very tight binding”, the “ΔH McpU-LBD” value (McpU-LBD [1]) is reported as -14.5 ± 0.2 kcal/mol and the Kd (McpU-LBD [1]) is reported as 480 ± 20 nM. For the same compound, the Kd (TlpQ-LBD [2]) was 150 ± 9 nM, the “ΔH TlpQ-LBD” value (TlpQ-LBD [2]; ITC, 25°C) was -5.4 ± 0.1 kcal/mol and the “KD McpU-LBD/KD TlpQ-LBD” value (TlpQ-LBD [3]) was 3. The “Tm increase of McpU-LBD” value (McpU-LBD [4]) was “greater than 2 °C”.

In the case of `NCCCCCN` [Cadaverine], the “ΔH McpU-LBD” value (McpU-LBD [1]) is reported as -15.5 ± 0.5 kcal/mol, the Kd (TlpQ-LBD [2]) is reported as 150 ± 4 nM and the “ΔH TlpQ-LBD” value (TlpQ-LBD [2]; ITC, 25°C) is reported as -6.0 ± 0.1 kcal/mol. For the same compound, the “KD McpU-LBD/KD TlpQ-LBD” value (TlpQ-LBD [3]) was 147 and the Kd (McpU-LBD [5]) was 22000 ± 2000 nM.

For `NCCN` [Ethylenediamine], the “binding to McpU-LBD (in words)” value (McpU-LBD [1]) was “much lower affinities”, the “ΔH McpU-LBD” value (McpU-LBD [1]) was -9.7 ± 0.5 kcal/mol and the Kd (McpU-LBD [1]) was 39000 ± 4000 nM. For the same compound, the “binding to TlpQ-LBD (in words)” value (TlpQ-LBD [2]; ITC) was “slightly weaker”, the “ΔH TlpQ-LBD” value (TlpQ-LBD [2]; ITC, 25°C) was -6.3 ± 0.6 kcal/mol and the Kd (TlpQ-LBD [2]; ITC, 25°C, polybuffer pH 7.0, read-out: KD TlpQ-LBD) was 1710 nM. For the same compound, the “KD McpU-LBD/KD TlpQ-LBD” value (TlpQ-LBD [3]) was 23, the “Tm increase of McpU-LBD” value (McpU-LBD [4]) was “greater than 2 °C” and the “growth as sole carbon or nitrogen source” value (PAO1) was “either not or were poor growth substrates”. The “growth as sole carbon or nitrogen source” value (KT2440) was “either not or were poor growth substrates”.

For `NCCc1c[nH]cn1` [Histamine], the “binding to McpU-LBD (in words)” value (McpU-LBD [1]) was “much lower affinities”, the “ΔH McpU-LBD” value (McpU-LBD [1]) was -2.6 ± 0.3 kcal/mol and the Kd (McpU-LBD [1]) was 26000 ± 2000 nM. The Kd (TlpQ-LBD [2]) was 639 ± 27 nM, the “ΔH TlpQ-LBD” value (TlpQ-LBD [2]; ITC, 25°C) was -9.1 ± 0.3 kcal/mol and the “KD McpU-LBD/KD TlpQ-LBD” value (TlpQ-LBD [3]) was 41. For the same compound, the “Tm increase of McpU-LBD” value (McpU-LBD [4]) was “greater than 2 °C”, the “chemotaxis of PA14 triple mutant” value [6] was “abolished histamine chemotaxis” and the “chemotaxis of PCT2Q complemented with pctA, pctC or tlpQ” value ([7]; 500 µM histamine, 2.5 min) was “significant chemotaxis”. The “chemotaxis of PCT2Q complemented with pctC or tlpQ in trans” value ([7]; 500 µM histamine, exposure time 1 min) was “recovered histamine chemotaxis”, the “chemotaxis of strain PCT2 (pctA, pctB, pctC deleted)” value ([7]; 5 mM histamine) was “abolished chemotaxis” and the “concentration range of significant chemotaxis of PCT2 mutant” value ([7]; dose response) was 0.5 µM and 500 µM. For the same compound, the “chemotaxis of PCT2Q mutant (pctABC and tlpQ deleted)” value ([7]; entire concentration range 50 nM to 50 mM) was “devoid of histamine chemotaxis”, the “concentration at onset of chemotactic response” value (P. aeruginosa PAO1) was 500 nM and the “chemotaxis (in words)” value (P. aeruginosa PAO1; 2 min) was “much stronger”. For the same compound, the “chemotaxis (in words)” value [8] was “significant chemotaxis”, the “binding to PctC-LBD (in words)” value (PctC-LBD) was “did not bind” and the “concentration at onset of chemotactic response” value (P. putida KT2440; KT2440, capillary assay) was 5 µM. The “chemotaxis (in words)” value (P. putida KT2440; KT2440, histamine dose response) was “only moderate chemotaxis”, the “chemotaxis (in words)” value [9] was “not attracted” and the “growth as sole carbon and nitrogen source” value [10] was “no significant growth”. For the same compound, the “binding to PctA-LBD, competition assay (in words)” value (PctA-LBD; PctA-LBD titrated with L-Ala with and without 20 mM histamine) was “does not bind directly”, the “binding to PctA-LBD (in words)” value (PctA-LBD) was “did not bind” and the “growth as sole carbon or nitrogen source” value (PAO1) was “permitted the growth”. The “growth as sole carbon or nitrogen source” value (KT2440) was “permitted the growth”.

For `C[C@H](N)C(=O)O` [L-Ala, L-alanine, reference compound], the “binding to PctA-LBD (in words)” value (PctA-LBD) was “bound”.

For `NC(=O)CC[C@H](N)C(=O)O` [L-Gln, reference compound], the “binding to PctC-LBD (in words)” value (PctC-LBD) was “bound”.

In the case of `NCCCCN` [Putrescine], the “ΔH McpU-LBD” value (McpU-LBD [1]) is reported as -15 ± 0.5 kcal/mol, the Kd (TlpQ-LBD [2]) is reported as 134 ± 12 nM and the “ΔH TlpQ-LBD” value (TlpQ-LBD [2]; ITC, 25°C) is reported as -6.8 ± 0.3 kcal/mol. For the same compound, the “KD McpU-LBD/KD TlpQ-LBD” value (TlpQ-LBD [3]) was 15 and the Kd (McpU-LBD [5]) was 2000 ± 100 nM.

In the case of `NCCCCNCCCN` [Spermidine], the “ΔH McpU-LBD” value (McpU-LBD [1]) is reported as -4.3 ± 0.3 kcal/mol, the Kd (TlpQ-LBD [2]) is reported as 56 ± 4 nM and the “ΔH TlpQ-LBD” value (TlpQ-LBD [2]; ITC, 25°C) is reported as -4.6 ± 0.4 kcal/mol. For the same compound, the “KD McpU-LBD/KD TlpQ-LBD” value (TlpQ-LBD [3]) was 80, the Kd (McpU-LBD [5]) was 4500 ± 400 nM and the “growth as sole carbon or nitrogen source” value (PAO1) was “either not or were poor growth substrates”. For the same compound, the “growth as sole carbon or nitrogen source” value (KT2440) was “either not or were poor growth substrates”.

With `C=C` [ethylene] the “binding to TlpQ-LBD (in words)” value (TlpQ-LBD [2]; ITC) was “did not show any binding”.
